The target in data set [1] is T1, WT c-MET (Homo sapiens, UniProt P08581). Type of data set: biochemical. To be noted: LLE = pIC50 – log D.
Target sequence in this assay (P08581 25-1390): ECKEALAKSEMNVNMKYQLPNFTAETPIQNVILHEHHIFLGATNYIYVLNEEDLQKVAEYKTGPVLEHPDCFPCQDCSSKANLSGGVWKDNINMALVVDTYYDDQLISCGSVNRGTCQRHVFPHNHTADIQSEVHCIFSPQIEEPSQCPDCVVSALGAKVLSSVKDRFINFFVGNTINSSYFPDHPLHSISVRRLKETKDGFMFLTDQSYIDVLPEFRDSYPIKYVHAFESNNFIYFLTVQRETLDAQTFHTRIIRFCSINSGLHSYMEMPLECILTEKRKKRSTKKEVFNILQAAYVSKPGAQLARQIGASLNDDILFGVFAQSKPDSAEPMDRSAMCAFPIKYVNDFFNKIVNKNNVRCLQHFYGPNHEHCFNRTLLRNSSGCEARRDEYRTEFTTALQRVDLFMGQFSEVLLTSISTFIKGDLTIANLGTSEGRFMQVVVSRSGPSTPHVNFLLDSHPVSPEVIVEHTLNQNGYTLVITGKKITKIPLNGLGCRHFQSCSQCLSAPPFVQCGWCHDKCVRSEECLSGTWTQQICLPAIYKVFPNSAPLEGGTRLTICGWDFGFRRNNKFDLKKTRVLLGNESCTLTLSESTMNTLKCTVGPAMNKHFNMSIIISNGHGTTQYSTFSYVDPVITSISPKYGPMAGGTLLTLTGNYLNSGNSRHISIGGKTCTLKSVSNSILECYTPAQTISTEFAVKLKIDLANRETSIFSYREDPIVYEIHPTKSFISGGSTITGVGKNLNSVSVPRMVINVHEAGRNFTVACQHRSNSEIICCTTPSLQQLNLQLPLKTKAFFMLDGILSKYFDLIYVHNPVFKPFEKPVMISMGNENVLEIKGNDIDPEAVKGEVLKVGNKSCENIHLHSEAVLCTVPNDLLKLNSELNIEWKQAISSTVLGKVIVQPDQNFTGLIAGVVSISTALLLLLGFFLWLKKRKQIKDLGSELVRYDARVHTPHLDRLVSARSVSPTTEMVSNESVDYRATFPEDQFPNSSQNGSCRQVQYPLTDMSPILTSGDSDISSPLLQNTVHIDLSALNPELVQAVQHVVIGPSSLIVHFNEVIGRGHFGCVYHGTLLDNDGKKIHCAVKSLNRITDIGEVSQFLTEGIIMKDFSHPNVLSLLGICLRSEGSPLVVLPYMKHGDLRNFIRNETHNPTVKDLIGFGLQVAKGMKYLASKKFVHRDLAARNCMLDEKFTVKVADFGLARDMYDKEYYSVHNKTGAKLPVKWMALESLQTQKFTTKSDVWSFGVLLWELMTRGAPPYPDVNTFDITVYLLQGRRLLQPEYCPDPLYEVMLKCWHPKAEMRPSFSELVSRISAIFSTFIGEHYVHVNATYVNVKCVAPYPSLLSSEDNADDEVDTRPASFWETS
The nature of data set [2]: Rat plasma pharmacokinetics. As to conditions: male, Han Wistar, iv, 0.5 mg/kg.
A short description of data set [3]: Human liver microsome Clint.
The subject of a further data set is Rat hepatocytes. Put plainly: Rat hepatocyte Clint. To be noted: for RH: rat hepatocytes; for Hepatocytes Rat: Table 4.
The next data set relates to Human hepatocytes. Put plainly: Human hepatocyte Clint. As to conditions: Table 4.
In the next data set the test system is P-gp (MDR1). Put plainly: MDR1-MDCK permeability and efflux. To be noted: dog.
The target in data set [4] is T1, WT c-MET. The class given is binding. To be noted: Table 1; LLE = pKd – log D.
Target sequence in this assay (P08581 25-1390): as above
The nature of another data set: Log D shake-flask method. To be noted: octanol/water, pH 7.4, logD, Table 1, octanol and water at pH7.4.
The next data set relates to RON. As to conditions: read-out: cell IC50 RON; cited from earlier work.
For a further data set, the system named is c-MET. As to conditions: read-out: cell IC50 c-MET; cited from earlier work.
The target of data set [5] is T1, WT c-MET. Type of data set: binding. As to conditions: adenosine 500 μM, WT c-MET 7.4 μM, compound 100 μM.
Target sequence in this assay (P08581 1038-1348): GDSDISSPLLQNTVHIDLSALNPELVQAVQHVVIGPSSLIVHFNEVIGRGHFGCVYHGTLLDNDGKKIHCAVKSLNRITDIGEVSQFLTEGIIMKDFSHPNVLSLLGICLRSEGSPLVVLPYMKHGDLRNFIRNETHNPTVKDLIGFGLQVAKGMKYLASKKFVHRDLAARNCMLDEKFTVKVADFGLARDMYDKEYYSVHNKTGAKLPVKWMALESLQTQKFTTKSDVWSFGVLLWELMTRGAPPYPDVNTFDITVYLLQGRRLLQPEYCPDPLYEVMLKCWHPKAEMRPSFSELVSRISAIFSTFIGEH
Setting [6] is: Table 3, human liver microsomes.

Like-named read-outs stand apart in the source and are kept apart here. Bounds are passed on as bounds.

Regarding `C#Cc1n[nH]c2c(-c3cn(C(C)c4ccccn4)c(=O)[nH]c3=O)cc(F)cc12` (centres unmarked) [Compound 31, 5-(3-Ethynyl-5-fluoro-1H-indazol-7-yl)-1-(1-(pyridin-2-yl)ethyl)pyrimidine-2,4(1H,3H)-dione], the “ADP-Glo assay LLE WT” value at WT c-MET [1] (Table 3) was found to be 4.8. This compound also gave a clearance in data set [2] of 13 mL/min/kg. For the same compound, the HLM in data set [3] (setting [6]) and in data set [3] (Table 4) was below 3.00 µL/min/mg each time. This compound came in with an RH in the data set on Rat hepatocytes (Table 3) of 4.81 μL/min/10^6 cells. In the data set on Rat hepatocytes, the “Hepatocytes Rat” value turned out to be 4.81 μL/min/10^6 cells. Further, the “Hepatocytes Human” value in the data set on Human hepatocytes is 1.29 μL/min/10^6 cells.
With `C[C@@H](c1ccc(F)cc1)n1cc(-c2cc(F)cc3cn[nH]c23)c(=O)[nH]c1=O` [Compound 27, (S)-5-(5-Fluoro-1H-indazol-7-yl)-1-(1-(4-fluorophenyl)ethyl)pyrimidine-2,4(1H,3H)-dione], at WT c-MET [1] (Table 3), the “ADP-Glo assay LLE WT” value is recorded as 4.1. The compound further registered a clearance in [2] of 74 mL/min/kg. For the same compound, in the data set on P-gp (MDR1), the efflux ratio at 2 h, 10 μM is below 7. The compound also returned an RH in the data set with Rat hepatocytes (Table 3) of 14.8 μL/min/10^6 cells. Further, the “Hepatocytes Rat” value in the data set with Rat hepatocytes was determined as 14.8 μL/min/10^6 cells. For the same compound, the “Hepatocytes Human” value in the data set on Human hepatocytes is given as 1.81 μL/min/10^6 cells.
Consider `C[C@@H](c1ccc(F)cc1)n1cc(-c2cc(F)cc3c(C#N)n[nH]c23)c(=O)[nH]c1=O` [Compound 25, (S)-5-Fluoro-7-(1-(1-(4-fluorophenyl)ethyl)-2,4-dioxo-1,2,3,4-tetrahydropyrimidin-5-yl)-1H-indazole-3-carbonitrile], for which the “ADP-Glo assay LLE WT” value on WT c-MET [1] (Table 3) is reported as 3.8. The same compound gave a clearance in [2] of 3 mL/min/kg. Further, the RH in the data set with Rat hepatocytes (Table 3) came out at 5.13 μL/min/10^6 cells. For the same compound, in the data set with Rat hepatocytes, the “Hepatocytes Rat” value came out at 5.13 μL/min/10^6 cells. For the same compound, the “Hepatocytes Human” value with Human hepatocytes is on record as 2.48 μL/min/10^6 cells.
Regarding `C#Cc1n[nH]c2c(-c3cn(C(C)c4ccccc4)c(=O)[nH]c3=O)cc(F)cc12` (centres unmarked) [Compound 29, 5-(3-Ethynyl-5-fluoro-1H-indazol-7-yl)-1-(1-phenylethyl)pyrimidine-2,4(1H,3H)-dione], the clearance in data set [2] turned out to be 60 mL/min/kg. Also, the HLM in data set [3] (setting [6]) and in data set [3] (Table 4) was 12.2 µL/min/mg throughout. Moreover, the RH with Rat hepatocytes (Table 3) is 5.99 μL/min/10^6 cells. Besides, in the data set on Rat hepatocytes, the “Hepatocytes Rat” value was found to be 5.99 μL/min/10^6 cells. Besides, in the data set on Human hepatocytes, the “Hepatocytes Human” value is given as 4.27 μL/min/10^6 cells.
With `CC(c1ccc(F)cc1)n1cc(-c2cc(F)cc(F)c2)c(=O)[nH]c1=O` (centres unmarked) [Compound 6, 5-(3,5-Difluorophenyl)-1-(1-(4-fluorophenyl)ethyl)pyrimidine-2,4(1H,3H)-dione], at WT c-MET [4], the “SPR assay LLE WT” value was found to be 2.6. In the data set “Log D shake-flask method”, this compound displayed a logD of 3.3. In the data set with Rat hepatocytes (Table 1), the RH is 26.8 μL/min/10^6 cells.
For the compound `CC(c1ccccc1)n1cc(-c2cccc3cn[nH]c23)c(=O)[nH]c1=O` (centres unmarked) [Compound 15, 5-(1H-Indazol-7-yl)-1-(1-phenylethyl)pyrimidine-2,4(1H,3H)-dione], at WT c-MET [4], the “SPR assay LLE WT” value is 4.2. Further, the “ADP-Glo assay LLE WT” value on WT c-MET [1] (Table 2) amounted to 3.5. Moreover, the RH in the data set with Rat hepatocytes (Table 1) worked out at 46.1 μL/min/10^6 cells.
Regarding `C[C@@H](Oc1cc(-c2cnn(C3CCNCC3)c2)cnc1N)c1c(Cl)ccc(F)c1Cl` [crizotinib], the concentration for half-maximal inhibition (IC50) was […] with RON and […] with c-MET.
As for `CC(c1ccccc1)n1cc(-c2cc(F)cc(F)c2)c(=O)[nH]c1=O` (centres unmarked) [Compound 2, 5-(3,5-Difluorophenyl)-1-(1-phenylethyl)pyrimidine-2,4(1H,3H)-dione], on WT c-MET [4], the “SPR assay LLE WT” value was determined as 2.4. The same compound yielded an RH in the data set on Rat hepatocytes (Table 1) of 123 μL/min/10^6 cells. Also, on WT c-MET [5], the “competition with adenosine for binding to WT c-MET” value was “clear competition”.

The values above are taken from article PMC10350928 (Journal of Medicinal Chemistry, 2023).
